pKi: −log10 of the molar value.
Experiments:
[1] = molecular target: BCL2 D103Y (Homo sapiens, UniProt P10415, D103Y); assay: TR-FRET competitive binding assay, BCL2 D103Y; settings: Ki determined from IC50, read-out: TR_FRET EKI_Bcl2 D103Y
In short: (§1)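 Ki derived from IC50 (11-point dilution, 520/495 nm emission ratio) for displacing a fluorescein-labelled PUMA peptide (2 or 20 nM). Target was 0.5 nM E. coli-expressed Halo-tagged BCL2 (1-207) or BCLXL (2-196), terbium-labelled on Halo. Incubation 2 h at 23°C in pH 7.5 Hepes with 150 mM NaCl and 5% DMSO.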

[2] = molecular target: BCL2 G101V (Homo sapiens, UniProt P10415, G101V); assay: TR-FRET competitive binding assay, BCL2 G101V; settings: BCL2 G101V; Ki determined from IC50; read-out: TR_FRET EKI_Bcl2 G101V
In short: as §1

[3] = tested on: BCL2 G101V; assay: TR-FRET competitive binding assay, BCL2 G101V; set-up: species or system human; settings: ratio Ki BCL2 G101V / Ki BCL2 WT
In short: as §1

[4] = tested on: KMS-12-PE Bcl-2 G101V; assay: In vitro cytotoxicity CellTiter-Glo 48 h, KMS-12-PE Bcl-2 G101V; type: cell-based; settings: for Ratio (G101V/WT): C50 KMS-12-PE Bcl-2 G101V over C50 KMS-12-PE Bcl-2 WT; for IC50: Homo sapiens, KMS-12-PE, 48 h, CellTiter-Glo, C50 = concentration needed to reach 50% of the cellular viability
In short: (§2)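 Bcl-2 WT- and G101V-expressing KMS-12-PE cells; 48 h treatment at 37 °C, 5% CO2; CellTiter-Glo ATP luminescence; C50 from 11-point curves.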

[5] = molecular target: BCLXL WT (Homo sapiens (Human), UniProt Q07817); assay: TR-FRET competitive binding assay, BCLXL WT; settings: for pKi: BCLXL WT, Ki determined from IC50, read-out: TR_FRET EKI BclxL; for TR_FRET EKI BCLxL/WT selectivty ratio: ratio Ki BCLxL / Ki BCL2 WT
In short: as §1

[6] = tested on: KMS-12-PE Bcl-2 WT; assay: In vitro cytotoxicity CellTiter-Glo 48 h, KMS-12-PE Bcl-2 WT; type: cell-based; settings: Homo sapiens, KMS-12-PE, C50 = concentration needed to reach 50% of the cellular viability
In short: as §2

[7] = Pharmacokinetics in SCID mice; type: in vivo; settings: 25 mg/kg IV bolus; for PK parameters Cinf: concentration at the end of bolus administration; for AUC: mouse, blood, area under curve over 24 h, read-out: PK parameters AUC24
Procedure: (§3) Pharmacokinetic (PK) and platelet toxicity were investigated in SCID mice. Compounds were administered at 25 mg/kg by IV bolus, and formulated in PEG/Ethanol/NaCl 0.9% (40/10/50 v/v/v).
(§4) Blood samples (3 animals/time point and 3 time points/animal) were collected over 24 h after dosing: 0.05 h, 0.5 h, 1 h, 3 h, 6 h and 24 h for PK and 6 h and 24 h for platelets.
(§5) PK samples were analyzed by liquid chromatography using tandem mass spectrometry detection (LC-MS/MS) and platelet count (109/L) was measured using an hematology analyzer. Percentage of platelet loss was calculated at both time points (T+6 h and 24 h) as compared to a control group of 6 animals. PK parameters (Cinf and AUC24, which correspond to the concentration at the end of bolus administration and the area under curve over 24 h, respectively) were also determined using a non-compartmental analysis.

[8] = tested on: platelets; assay: Platelet depletion in SCID mice; type: in vivo; settings: 25 mg/kg IV bolus, vs control group; for Platelet loss (%) 6 h: 6 h after dosing; for Platelet loss (%) 24 h: 24 h after dosing
Procedure: as §3, §4, §5

[9] = molecular target: BCL2 WT (Homo sapiens (Human), UniProt P10415); assay: TR-FRET competitive binding assay, BCL2 WT; settings: Ki determined from IC50, read-out: TR_FRET EKI_Bcl2 WT
In short: as §1

[10] = molecular target: BCL2 D111A (Homo sapiens, UniProt P10415, D111A); assay: TR-FRET competitive binding assay, BCL2 D111A; settings: Ki determined from IC50, read-out: TR_FRET EKI_Bcl2 D111A
In short: as §1

[11] = molecular target: BCL2 F104I (Homo sapiens, UniProt P10415, F104I); assay: TR-FRET competitive binding assay, BCL2 F104I; settings: Ki determined from IC50, read-out: TR_FRET EKI_Bcl2 F104I
In short: as §1

Chain of BCLXL WT (Q07817 other isoform, or with tags, fused parts or gaps): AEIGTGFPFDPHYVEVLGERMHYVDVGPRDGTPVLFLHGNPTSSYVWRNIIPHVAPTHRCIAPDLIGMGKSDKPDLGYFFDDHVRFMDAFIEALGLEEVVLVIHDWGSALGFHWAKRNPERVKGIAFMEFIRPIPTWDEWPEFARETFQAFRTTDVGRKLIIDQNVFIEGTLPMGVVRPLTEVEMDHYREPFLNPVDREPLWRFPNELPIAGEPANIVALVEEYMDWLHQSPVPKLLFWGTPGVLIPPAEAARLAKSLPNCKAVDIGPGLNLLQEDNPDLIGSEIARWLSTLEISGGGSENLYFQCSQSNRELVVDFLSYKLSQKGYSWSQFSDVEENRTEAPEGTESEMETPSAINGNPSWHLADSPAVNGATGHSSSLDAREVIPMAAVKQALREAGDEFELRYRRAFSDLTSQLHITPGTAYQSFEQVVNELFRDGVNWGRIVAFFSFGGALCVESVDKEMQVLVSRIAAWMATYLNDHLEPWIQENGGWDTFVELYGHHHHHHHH

pKi [1]	pKi [2]	TR_FRET EKI G101V/WT selectivty ratio [3]	pKi [5]	TR_FRET EKI BCLxL/WT selectivty ratio [5]	PK parameters Cinf [7]	AUC [7]	Platelet loss (%) 6 h [8]	Platelet loss (%) 24 h [8]	pKi [9]	pKi [10]	pKi [11]	SMILES	Ratio (G101V/WT) [4]	IC50 [4]	IC50 [6]
9.66	9.30	3.3	8.43	24.7	8.4 µM	12.6 µM·h	33.5%	22.5%	9.82	10.00	9.30	COc1ccc(CC(=O)N2CCc3cc(-c4cc(C(=O)N(c5ccc(O)cc5)c5cc(C#N)n(C)c5C)c(C)n4C)c(C(=O)N4Cc5ccccc5C[C@H]4CN4CCCCC4)cc3C2)c(F)c1 [Example 33, N-(5-cyano-1,2-dimethylpyrrol-3-yl)-5-{2-[2-(2-fluoro-4-methoxyphenyl)acetyl]-7-{[(3S)-3-(piperidin-1-ylmethyl)-3,4-dihydro-1H-isoquinolin-2-yl]carbonyl}-3,4-dihydro-1H-isoquinolin-6-yl}-N-(4-hydroxyphenyl)-1,2-dimethylpyrrole-3-carboxamide]	9.09	0.0491 µM	0.0054 µM
9.28	9.05	2.6	8.28	15.6	8.2 µM	9.7 µM·h	33.7%	18.2%	9.47	9.70	9.57	Cc1c(N(C(=O)c2cc(-c3cc4c(cc3C(=O)N3Cc5ccccc5C[C@H]3CN3CCCCC3)CN(C(=O)Cc3ccc(OCCC5CCOCC5)cc3F)CC4)n(C)c2C)c2ccc(O)cc2)cc(C#N)n1C [Example 34, N-(5-cyano-1,2-dimethylpyrrol-3-yl)-5-[2-(2-{2-fluoro-4-[2-(oxan-4-yl)ethoxy]phenyl}acetyl)-7-{[(3S)-3-(piperidin-1-ylmethyl)-3,4-dihydro-1H-isoquinolin-2-yl]carbonyl}-3,4-dihydro-1H-isoquinolin-6-yl]-N-(4-hydroxyphenyl)-1,2-dimethylpyrrole-3-carboxamide]	5.29	0.0275 µM	0.0052 µM
9.96	9.52	2.7	8.64	24.0	11.4 µM	9.2 µM·h	28.6%	22.5%	10.00	9.40	9.28	Cc1c(N(C(=O)c2cc(-c3cc4c(cc3C(=O)N3Cc5ccccc5C[C@H]3CN3CCOCC3)CN(C(=O)Cc3ccc(OCCC5CCOCC5)cc3F)CC4)n(C)c2C)c2ccc(O)cc2)cc(C#N)n1C [Example 54, N-(5-cyano-1,2-dimethyl-pyrrol-3-yl)-5-[2-[2-[2-fluoro-4-(2-tetrahydropyran-4-ylethoxy)phenyl]acetyl]-7-[(3S)-3-(morpholinomethyl)-3,4-dihydro-1H-isoquinoline-2-carbonyl]-3,4-dihydro-1H-isoquinolin-6-yl]-N-(4-hydroxyphenyl)-1,2-dimethyl-pyrrole-3-carboxamide]	4.23	0.024 µM	0.0057 µM

Second part, the molecule before the results:

SMILES	pKi [1]	pKi [2]	TR_FRET EKI G101V/WT selectivty ratio [3]	pKi [5]	TR_FRET EKI BCLxL/WT selectivty ratio [5]	PK parameters Cinf [7]	AUC [7]	Platelet loss (%) 6 h [8]	Platelet loss (%) 24 h [8]	pKi [9]	pKi [10]	pKi [11]	Ratio (G101V/WT) [4]	IC50 [4]	IC50 [6]
Cc1c(N(C(=O)c2cc(-c3cc4c(cc3C(=O)N3Cc5ccccc5C[C@H]3C)CN(S(=O)(=O)Cc3ccccc3)CC4)n(C)c2C)c2ccc(O)cc2)cc(C#N)n1C [Example 14, 5-[2-benzylsulfonyl-7-[(3R)-3-methyl-3,4-dihydro-1H-isoquinoline-2-carbonyl]-3,4-dihydro-1H-isoquinolin-6-yl]-N-(5-cyano-1,2-dimethyl-pyrrol-3-yl)-N-(4-hydroxyphenyl)-1,2-dimethyl-pyrrole-3-carboxamide]	8.43	8.31	5.4	7.28	58.9	13.5 µM	18.5 µM·h	16.1%	12.5%	9.05			8.86	0.0852 µM	0.0096 µM
Cc1c(N(C(=O)c2cc(-c3cc4c(cc3C(=O)N3Cc5ccccc5C[C@H]3C)CN(C(=O)Cc3ccc(N5CCN(CC(F)(F)F)CC5)cc3)CC4)n(C)c2C)c2ccc(O)cc2)cc(C#N)n1C [Example 23, N-(5-cyano-1,2-dimethyl-1H-pyrrol-3-yl)-N-(4-hydroxyphenyl)-1,2-dimethyl-5-{7-[(3R)-3-methyl-1,2,3,4-tetrahydroisoquinoline-2-carbonyl]-2-(2-{4-[4-(2,2,2-trifluoroethyl)piperazin-1-yl]phenyl}acetyl)-1,2,3,4-tetrahydroisoquinolin-6-yl}-1H-pyrrole-3-carboxamide]	8.96	8.46	6.0	7.31	83.6	6.8 µM	10.8 µM·h	19.6%	12.8%	9.24	8.81	7.70	9.34	0.0898 µM	0.0096 µM
Cc1c(N(C(=O)c2cc(-c3cc4c(cc3C(=O)N3Cc5ccccc5C[C@H]3C)CN(C(=O)Cc3ccc(C5CCN(CCF)CC5)c(F)c3)CC4)n(C)c2C)c2ccc(O)cc2)cc(C#N)n1C [Example 28, N-(5-cyano-1,2-dimethylpyrrol-3-yl)-5-[2-(2-{3-fluoro-4-[1-(2-fluoroethyl)piperidin-4-yl]phenyl}acetyl)-7-{[(3R)-3-methyl-3,4-dihydro-1H-isoquinolin-2-yl]carbonyl}-3,4-dihydro-1H-isoquinolin-6-yl]-N-(4-hydroxyphenyl)-1,2-dimethylpyrrole-3-carboxamide]	9.47	8.92	4.8	8.25	22.4	18.2 µM	38.3 µM·h	23.2%	15.2%	9.60	9.23	8.19	6.51	0.0643 µM	0.0099 µM
Cc1c(N(C(=O)c2cc(-c3cc4c(cc3C(=O)N3Cc5ccccc5C[C@H]3C)CN(C(=O)Cc3ccc(OCCN5C[C@@H](C)O[C@@H](C)C5)cc3)CC4)n(C)c2C)c2ccc(O)cc2)cc(C#N)n1C [Example 39, N-(5-cyano-1,2-dimethyl-1H-pyrrol-3-yl)-5-{2-[2-(4-{2-[cis-2,6-dimethylmorpholin-4-yl]ethoxy}phenyl)acetyl]-7-[(3R)-3-methyl-1,2,3,4-tetrahydroisoquinoline-2-carbonyl]-1,2,3,4-tetrahydroisoquinolin-6-yl}-N-(4-hydroxyphenyl)-1,2-dimethyl-1H-pyrrole-3-carboxamide]	9.15	9.15	3.5	8.64	11.5	26.5 µM	26.7 µM·h	26.9%	20.2%	9.70	9.74	9.34	4.07	0.023 µM	0.0056 µM

Reference: patent publication US20250179047A1, “5-[7-(3,4-DIHYDRO-1H-ISOQUINOLINE-2-CARBONYL)-1,2,3,4 TETRAHYDROISOQUINOLIN-6-YL]-1H-PYRROLE-3-CARBOXAMIDE DERIVATIVES, PHARMACEUTICAL COMPOSITIONS CONTAINING THEM AND THEIR USES AS PRO-APOPTOTIC AGENTS” (LES LABORATOIRES SERVIER, priority 2022, published 2025)
